Test results reported in US9149038B2, “4-amino-6-(heterocyclic)picolinates and 6-amino-2-(heterocyclic)pyrimidine-4-carboxylates and their use as herbicides” (Dow AgroSciences LLC, priority 2013, dated 2015).
Where two headings read alike, the source gives them in different places.

System: Wheat and Barley and weed species
Test: Post-Emergent Test III: postemergent herbicidal activity in wheat and barley, visual rating after 21 d and probit GR20/GR50/GR80/GR90 (Tables 9-13)
Assay type: in vivo
Conditions: for GR20 HORVS / GR20 TRZAS: growth reduction of 20%; for pest or weed control at 35 g/ha / pest or weed control at 70 g/ha / pest or weed control at 140 g/ha / pest or weed control at 17.5 g/ha: post-emergence, 504 h
In short: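 Greenhouse plants (~18/17 °C, 14 h photoperiod) at second–third true leaf stage sprayed at 187 L/ha with a high rate and ½× to 1/16× serial dilutions. Visual injury 0–100% versus solvent-blank controls scored at 21 d; GR20, GR50, GR80 and GR90 derived by probit analysis across rates.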

[1] = ALOMY black-grass (Alopecurus myosuroides), growth reduction of 50%, probit analysis
[2] = ALOMY black-grass (Alopecurus myosuroides), growth reduction of 80%, probit analysis
[3] = ALOMY black-grass (Alopecurus myosuroides), growth reduction of 90%, probit analysis
[4] = APESV bentgrass (Apera spica-venti), growth reduction of 50%, probit analysis
[5] = APESV bentgrass (Apera spica-venti), growth reduction of 80%, probit analysis
[6] = APESV bentgrass (Apera spica-venti), growth reduction of 90%, probit analysis
[7] = HORVS barley, spring (crop), probit analysis
[8] = Hordeum vulgare, HORVS barley, spring (crop), 35 g ai/ha, read-out: Visual Growth Reduction (%) 21 Days After Application HORVS
[9] = Hordeum vulgare, HORVS barley, spring (crop), 70 g ai/ha, read-out: Visual Growth Reduction (%) 21 Days After Application HORVS
[10] = LOLSS ryegrass, growth reduction of 50%, probit analysis
[11] = LOLSS ryegrass, growth reduction of 80%, probit analysis
[12] = LOLSS ryegrass, growth reduction of 90%, probit analysis
[13] = SETVI green foxtail (Setaria viridis), growth reduction of 50%, probit analysis
[14] = SETVI green foxtail (Setaria viridis), growth reduction of 80%, probit analysis
[15] = SETVI green foxtail (Setaria viridis), growth reduction of 90%, probit analysis
[16] = TRZAS wheat, spring (crop), probit analysis
[17] = Triticum aestivum, TRZAS wheat, spring (crop), 35 g ai/ha, read-out: Visual Growth Reduction (%) 21 Days After Application TRZAS
[18] = Triticum aestivum, TRZAS wheat, spring (crop), 70 g ai/ha, read-out: Visual Growth Reduction (%) 21 Days After Application TRZAS
[19] = ALOMY black-grass (Alopecurus myosuroides), 35 g ai/ha, read-out: Visual Growth Reduction (%) 21 Days After Application ALOMY
[20] = ALOMY black-grass (Alopecurus myosuroides), 70 g ai/ha, read-out: Visual Growth Reduction (%) 21 Days After Application ALOMY
[21] = APESV bentgrass (Apera spica-venti), 35 g ai/ha, read-out: Visual Growth Reduction (%) 21 Days After Application APESV
[22] = APESV bentgrass (Apera spica-venti), 70 g ai/ha, read-out: Visual Growth Reduction (%) 21 Days After Application APESV
[23] = LOLSS ryegrass, 35 g ai/ha, read-out: Visual Growth Reduction (%) 21 Days After Application LOLSS
[24] = LOLSS ryegrass, 70 g ai/ha, read-out: Visual Growth Reduction (%) 21 Days After Application LOLSS
[25] = SETVI green foxtail (Setaria viridis), 35 g ai/ha, read-out: Visual Growth Reduction (%) 21 Days After Application SETVI
[26] = SETVI green foxtail (Setaria viridis), 70 g ai/ha, read-out: Visual Growth Reduction (%) 21 Days After Application SETVI

Structure (SMILES): COC(=O)c1nc(-c2ccc3c(c2F)OC(F)(F)O3)c(F)c(N)c1Cl [Compound 10]
- GR50 ALOMY [1]: 52 g ai/ha
- GR80 ALOMY [2]: 109 g ai/ha
- GR90 ALOMY [3]: >140 g ai/ha
- GR50 APESV [4]: 65 g ai/ha
- GR80 APESV [5]: 106 g ai/ha
- GR90 APESV [6]: 138 g ai/ha
- GR20 HORVS [7]: 11 g ai/ha
- pest or weed control at 35 g/ha [8]: 60 to 74%
- pest or weed control at 70 g/ha [9]: 75 to 84%
- pest or weed control at 140 g/ha (Hordeum vulgare, HORVS barley, spring (crop), 140 g ai/ha, read-out: Visual Growth Reduction (%) 21 Days After Application HORVS): 85 to 94%
- Visual Growth Reduction (%) 21 Days After Application KCHSC (KCHSC kochia (Kochia scoparia), 35 g ai/ha): G (0-29)
- Visual Growth Reduction (%) 21 Days After Application KCHSC (KCHSC kochia (Kochia scoparia), 70 g ai/ha): D (60-74)
- Visual Growth Reduction (%) 21 Days After Application KCHSC (KCHSC kochia (Kochia scoparia), 140 g ai/ha): C (75-84)
- GR50 KCHSC (KCHSC kochia (Kochia scoparia), growth reduction of 50%, probit analysis): 78 g ai/ha
- GR80 KCHSC (KCHSC kochia (Kochia scoparia), growth reduction of 80%, probit analysis): 117 g ai/ha
- GR90 KCHSC (KCHSC kochia (Kochia scoparia), growth reduction of 90%, probit analysis): >140 g ai/ha
- GR50 LOLSS [10]: 93 g ai/ha
- GR80 LOLSS [11]: >140 g ai/ha
- GR90 LOLSS [12]: >140 g ai/ha
- GR50 SETVI [13]: 36 g ai/ha
- GR80 SETVI [14]: 63 g ai/ha
- GR90 SETVI [15]: 85 g ai/ha
- GR20 TRZAS [16]: 4 g ai/ha
- pest or weed control at 35 g/ha [17]: 60 to 74%
- pest or weed control at 70 g/ha [18]: 85 to 94%
- pest or weed control at 140 g/ha (Triticum aestivum, TRZAS wheat, spring (crop), 140 g ai/ha, read-out: Visual Growth Reduction (%) 21 Days After Application TRZAS): 85 to 94%
- pest or weed control at 35 g/ha [19]: 30 to 44%
- pest or weed control at 70 g/ha [20]: 45 to 59%
- pest or weed control at 140 g/ha (ALOMY black-grass (Alopecurus myosuroides), 140 g ai/ha, read-out: Visual Growth Reduction (%) 21 Days After Application ALOMY): 85 to 94%
- pest or weed control at 35 g/ha [21]: 0 to 29%
- pest or weed control at 70 g/ha [22]: 45 to 59%
- pest or weed control at 140 g/ha (APESV bentgrass (Apera spica-venti), 140 g ai/ha, read-out: Visual Growth Reduction (%) 21 Days After Application APESV): 85 to 94%
- pest or weed control at 35 g/ha [23]: 0 to 29%
- pest or weed control at 70 g/ha [24]: 30 to 44%
- pest or weed control at 140 g/ha (LOLSS ryegrass, 140 g ai/ha, read-out: Visual Growth Reduction (%) 21 Days After Application LOLSS): 60 to 74%
- pest or weed control at 35 g/ha [25]: 60 to 74%
- pest or weed control at 70 g/ha [26]: 75 to 84%
- pest or weed control at 140 g/ha (SETVI green foxtail (Setaria viridis), 140 g ai/ha, read-out: Visual Growth Reduction (%) 21 Days After Application SETVI): 95 to 100%

Structure (SMILES): Nc1c(F)c(-c2cc3c(cc2F)OC(F)(F)O3)nc(C(=O)O)c1Cl [Compound 13]
- GR50 ALOMY [1]: 20 g ai/ha
- GR80 ALOMY [2]: 40 g ai/ha
- GR90 ALOMY [3]: 57 g ai/ha
- GR50 APESV [4]: >70 g ai/ha
- GR80 APESV [5]: >70 g ai/ha
- GR90 APESV [6]: >70 g ai/ha
- GR20 HORVS [7]: 2 g ai/ha
- pest or weed control at 17.5 g/ha (Hordeum vulgare, HORVS barley, spring (crop), 17.5 g ai/ha, read-out: Visual Growth Reduction (%) 21 Days After Application HORVS): 60 to 74%
- pest or weed control at 35 g/ha [8]: 75 to 84%
- pest or weed control at 70 g/ha [9]: 85 to 94%
- GR50 LOLSS [10]: >70 g ai/ha
- GR80 LOLSS [11]: >70 g ai/ha
- GR90 LOLSS [12]: >70 g ai/ha
- Visual Growth Reduction (%) 21 Days After Application MATCH (MATCH wild chamomile (Matricaria recutita L.), 17.5 g ai/ha): G (0-29)
- Visual Growth Reduction (%) 21 Days After Application MATCH (MATCH wild chamomile (Matricaria recutita L.), 35 g ai/ha): F (30-44)
- Visual Growth Reduction (%) 21 Days After Application MATCH (MATCH wild chamomile (Matricaria recutita L.), 70 g ai/ha): D (60-74)
- GR50 MATCH (MATCH wild chamomile (Matricaria recutita L.), growth reduction of 50%, probit analysis): 58 g ai/ha
- GR80 MATCH (MATCH wild chamomile (Matricaria recutita L.), growth reduction of 80%, probit analysis): >70 g ai/ha
- GR90 MATCH (MATCH wild chamomile (Matricaria recutita L.), growth reduction of 90%, probit analysis): >70 g ai/ha
- GR50 SETVI [13]: 4 g ai/ha
- GR80 SETVI [14]: 20 g ai/ha
- GR90 SETVI [15]: 45 g ai/ha
- GR20 TRZAS [16]: 2 g ai/ha
- pest or weed control at 17.5 g/ha (Triticum aestivum, TRZAS wheat, spring (crop), 17.5 g ai/ha, read-out: Visual Growth Reduction (%) 21 Days After Application TRZAS): 60 to 74%
- pest or weed control at 35 g/ha [17]: 75 to 84%
- pest or weed control at 70 g/ha [18]: 75 to 84%
- Visual Growth Reduction (%) 21 Days After Application VERPE (VERPE bird's-eye speedwell (veronica persica), 17.5 g ai/ha): C (75-84)
- Visual Growth Reduction (%) 21 Days After Application VERPE (VERPE bird's-eye speedwell (veronica persica), 35 g ai/ha): B (85-94)
- Visual Growth Reduction (%) 21 Days After Application VERPE (VERPE bird's-eye speedwell (veronica persica), 70 g ai/ha): A (95-100)
- GR50 VERPE (VERPE bird's-eye speedwell (veronica persica), growth reduction of 50%, probit analysis): 3 g ai/ha
- GR80 VERPE (VERPE bird's-eye speedwell (veronica persica), growth reduction of 80%, probit analysis): 16 g ai/ha
- GR90 VERPE (VERPE bird's-eye speedwell (veronica persica), growth reduction of 90%, probit analysis): 37 g ai/ha
- pest or weed control at 17.5 g/ha (ALOMY black-grass (Alopecurus myosuroides), 17.5 g ai/ha, read-out: Visual Growth Reduction (%) 21 Days After Application ALOMY): 45 to 59%
- pest or weed control at 35 g/ha [19]: 60 to 74%
- pest or weed control at 70 g/ha [20]: 95 to 100%
- pest or weed control at 17.5 g/ha (APESV bentgrass (Apera spica-venti), 17.5 g ai/ha, read-out: Visual Growth Reduction (%) 21 Days After Application APESV): 0 to 29%
- pest or weed control at 35 g/ha [21]: 45 to 59%
- pest or weed control at 70 g/ha [22]: 60 to 74%
- pest or weed control at 17.5 g/ha (LOLSS ryegrass, 17.5 g ai/ha, read-out: Visual Growth Reduction (%) 21 Days After Application LOLSS): 0 to 29%
- pest or weed control at 35 g/ha [23]: 0 to 29%
- pest or weed control at 70 g/ha [24]: 0 to 29%
- pest or weed control at 17.5 g/ha (SETVI green foxtail (Setaria viridis), 17.5 g ai/ha, read-out: Visual Growth Reduction (%) 21 Days After Application SETVI): 60 to 74%
- pest or weed control at 35 g/ha [25]: 75 to 84%
- pest or weed control at 70 g/ha [26]: 95 to 100%
